Results: patent US10988477B2 (Merck Patent GmbH, priority 2018, dated 2021)

Target: GCN2 kinase (Homo sapiens, UniProt Q9P2K8)
Assay: GCN2 enzyme inhibition assay (Transcreener ADP2 fluorescence polarization)
Assay type: biochemical
Conditions: Enzyme activity for compounds of Formula IV; Ki(app), 280 μM ATP, 25° C.
In short: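 Inhibition of 4 nM GCN2 was measured with compound up to 8 μM final, ATP 280 μM and (RS)7 peptide 200 μM over a 1 h, 25 °C reaction. ADP FP readout; IC50 and Ki(app) calculated from percent inhibition.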

Chain of GCN2 kinase (Q9P2K8 whole entry): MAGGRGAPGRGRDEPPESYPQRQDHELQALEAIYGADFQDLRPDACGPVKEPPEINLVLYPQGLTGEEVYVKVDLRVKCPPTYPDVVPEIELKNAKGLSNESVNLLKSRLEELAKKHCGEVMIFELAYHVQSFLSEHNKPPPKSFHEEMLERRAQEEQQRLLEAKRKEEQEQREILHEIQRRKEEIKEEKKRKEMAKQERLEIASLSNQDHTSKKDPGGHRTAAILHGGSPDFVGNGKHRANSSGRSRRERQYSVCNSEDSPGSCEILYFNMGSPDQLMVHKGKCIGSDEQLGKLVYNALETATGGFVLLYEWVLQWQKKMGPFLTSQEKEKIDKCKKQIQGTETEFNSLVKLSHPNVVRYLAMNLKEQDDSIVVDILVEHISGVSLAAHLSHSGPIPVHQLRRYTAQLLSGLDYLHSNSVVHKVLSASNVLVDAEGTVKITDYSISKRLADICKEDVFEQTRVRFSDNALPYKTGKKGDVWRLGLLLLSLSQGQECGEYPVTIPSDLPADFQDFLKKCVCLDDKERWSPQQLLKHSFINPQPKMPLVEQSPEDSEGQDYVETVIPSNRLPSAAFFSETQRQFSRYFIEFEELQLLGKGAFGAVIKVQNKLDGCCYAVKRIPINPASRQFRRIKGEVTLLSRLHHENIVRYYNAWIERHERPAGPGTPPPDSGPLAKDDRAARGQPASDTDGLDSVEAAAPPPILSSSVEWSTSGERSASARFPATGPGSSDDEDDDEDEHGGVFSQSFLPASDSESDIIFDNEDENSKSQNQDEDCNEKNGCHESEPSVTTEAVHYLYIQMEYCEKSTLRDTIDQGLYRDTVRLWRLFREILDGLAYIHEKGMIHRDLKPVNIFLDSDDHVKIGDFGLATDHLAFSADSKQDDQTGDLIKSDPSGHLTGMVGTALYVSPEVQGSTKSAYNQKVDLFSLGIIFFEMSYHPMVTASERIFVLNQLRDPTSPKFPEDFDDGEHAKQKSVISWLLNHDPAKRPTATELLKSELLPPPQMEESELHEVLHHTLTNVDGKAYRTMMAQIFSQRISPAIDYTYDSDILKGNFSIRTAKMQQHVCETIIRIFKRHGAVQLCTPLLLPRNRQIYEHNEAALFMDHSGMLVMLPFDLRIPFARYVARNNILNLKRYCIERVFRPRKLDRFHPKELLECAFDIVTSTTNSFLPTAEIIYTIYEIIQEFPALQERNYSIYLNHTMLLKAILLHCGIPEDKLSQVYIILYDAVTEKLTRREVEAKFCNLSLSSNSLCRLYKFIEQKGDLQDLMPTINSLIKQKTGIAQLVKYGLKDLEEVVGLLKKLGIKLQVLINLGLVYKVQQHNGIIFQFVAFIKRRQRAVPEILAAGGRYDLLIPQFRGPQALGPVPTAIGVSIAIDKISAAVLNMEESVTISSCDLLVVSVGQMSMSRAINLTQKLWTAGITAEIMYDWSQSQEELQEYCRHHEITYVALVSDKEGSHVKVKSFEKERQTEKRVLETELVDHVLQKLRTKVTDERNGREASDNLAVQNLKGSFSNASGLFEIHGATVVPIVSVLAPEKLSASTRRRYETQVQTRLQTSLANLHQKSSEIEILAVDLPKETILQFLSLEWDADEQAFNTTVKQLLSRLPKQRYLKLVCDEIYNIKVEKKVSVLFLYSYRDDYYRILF

Compound	Ki [nM]
CC(=O)N1CCN(c2ccnc(-c3cnc4cnc(-c5ccc(CO)cc5)cn34)n2)CC1 [IV-302, 1-(4-(2-(6-(4-(Hydroxymethyl)phenyl)imidazo[1,2-a]pyrazin-3-yl)pyrimidin-4-yl)piperazin-1-yl)ethan-1-one]	100 to 1000
CC(=O)N1CCN(c2ccnc(-c3cnc4cnc(-c5ccc(C(N)=O)cc5)cn34)n2)CC1 [IV-303, 4-(3-(4-(4-Acetylpiperazin-1-yl)pyrimidin-2-yl)imidazo[1,2-a]pyrazin-6-yl)benzamide]	100 to 1000
CC(=O)N1CCN(c2ccnc(-c3cnc4cnc(-c5cn(C)nc5C)cn34)n2)CC1 [IV-307, 1-(4-(2-(6-(1,3-Dimethyl-1H-pyrazol-4-yl)imidazo[1,2-a]pyrazin-3-yl)pyrimidin-4-yl)piperazin-1-yl)ethan-1-one]	100 to 1000
CC(=O)N1CCN(c2ccnc(-c3cnc4cnc(-c5cccc(CO)c5)cn34)n2)CC1 [IV-308, 1-(4-(2-(6-(3-(Hydroxymethyl)phenyl)imidazo[1,2-a]pyrazin-3-yl)pyrimidin-4-yl)piperazin-1-yl)ethan-1-one]	100 to 1000
CC1CCN(c2ccnc(-c3cnc4cnc(C(F)(F)F)cn34)n2)CC1n1ccnc1 (stereo not shown) [IV-319, 3-(4-(3-(1H-Imidazol-1-yl)-4-methylpiperidin-1-yl)pyrimidin-2-yl)-6-(trifluoromethyl)imidazo[1,2-a]pyrazine]	100 to 1000
CC1CCN(c2ccnc(-c3cnc4cnc(C(F)(F)F)cn34)n2)CC1n1ccnc1 (stereo not shown) [IV-320, 3-(4-(3-(1H-Imidazol-1-yl)-4-methylpiperidin-1-yl)pyrimidin-2-yl)-6-(trifluoromethyl)imidazo[1,2-a]pyrazine]	100 to 1000
FC(F)(F)c1cn2c(-c3nccc(N4CCCC(c5ncon5)C4)n3)cnc2cn1 (stereo not shown) [IV-321, 3-(1-(2-(6-(Trifluoromethyl)imidazo[1,2-a]pyrazin-3-yl)pyrimidin-4-yl)piperidin-3-yl)-1,2,4-oxadiazole]	100 to 1000
FC(F)(F)c1cn2c(-c3nccc(N4CCCC(c5ncno5)C4)n3)cnc2cn1 (stereo not shown) [IV-322, 5-(1-(2-(6-(Trifluoromethyl)imidazo[1,2-a]pyrazin-3-yl)pyrimidin-4-yl)piperidin-3-yl)-1,2,4-oxadiazole]	100 to 1000
FC(F)(F)c1cn2c(-c3nccc(N4CCCC(c5nnc[nH]5)C4)n3)cnc2cn1 (stereo not shown) [IV-326, 3-(4-(3-(4H-1,2,4-Triazol-3-yl)piperidin-1-yl)pyrimidin-2-yl)-6-(trifluoromethyl)imidazo[1,2-a]pyrazine]	100 to 1000
FC(F)(F)c1cn2c(-c3nccc(N4CCCC(c5nn[nH]n5)C4)n3)cnc2cn1 (stereo not shown) [IV-331, 3-(4-(3-(2H-Tetrazol-5-yl)piperidin-1-yl)pyrimidin-2-yl)-6-(trifluoromethyl)imidazo[1,2-a]pyrazine]	100 to 1000
O=CNC1CCCN(c2ccnc(-c3cnc4cnc(C(F)(F)F)cn34)n2)C1 (stereo not shown) [IV-332, N-(1-(2-(6-(trifluoromethyl)imidazo[1,2-a]pyrazin-3-yl)pyrimidin-4-yl)piperidin-3-yl)formamide]	100 to 1000
FC(F)(F)c1cn2c(-c3nccc(N4CCCC4)n3)cnc2cn1 [IV-428, 3-(4-(Pyrrolidin-1-yl)pyrimidin-2-yl)-6-(trifluoromethyl)imidazo[1,2-a]pyrazine]	100 to 1000
FC(F)(F)c1cn2c(-c3nccc(N4CCCCCC4)n3)cnc2cn1 [IV-429, 3-(4-(Azepan-1-yl)pyrimidin-2-yl)-6-(trifluoromethyl)imidazo[1,2-a]pyrazine]	100 to 1000
OCCn1cc(-c2ccnc(-c3cnc4cnc(C(F)(F)F)cn34)n2)cn1 [IV-431, 2-(4-(2-(6-(Trifluoromethyl)imidazo[1,2-a]pyrazin-3-yl)pyrimidin-4-yl)-1H-pyrazol-1-yl)ethan-1-ol]	100 to 1000
NC(=O)CC1CCN(c2ccnc(-c3cnc4cnc(C(F)(F)F)cn34)n2)C1 (stereo not shown) [IV-432, 2-(1-(2-(6-(Trifluoromethyl)imidazo[1,2-a]pyrazin-3-yl)pyrimidin-4-yl)pyrrolidin-3-yl)acetamide]	100 to 1000

Next, values leading:

Ki [nM]	Compound
100 to 1000	NC(=O)c1cn2c(-c3cccc(N4CCN(C(=O)C5CC5)CC4)n3)cnc2cn1 [IV-284, 3-(6-(4-(Cyclopropanecarbonyl)piperazin-1-yl)pyridin-2-yl)imidazo[1,2-a]pyrazine-6-carboxamide]
10 to 100	CC(=O)N1CCN(c2ccnc(-c3cnc4cnc(-c5ccncc5)cn34)n2)CC1 [IV-285, 1-(4-(2-(6-(Pyridin-4-yl)imidazo[1,2-a]pyrazin-3-yl)pyrimidin-4-yl)piperazin-1-yl)ethan-1-one]
10 to 100	O=C1CCCC2CN(c3ccnc(-c4cnc5cnc(Cl)cn45)n3)CCN12 (stereo not shown) [IV-286, 2-(2-(6-Chloroimidazo[1,2-a]pyrazin-3-yl)pyrimidin-4-yl)octahydro-6H-pyrido[1,2-c]pyrazin-6-one]
100 to 1000	CC(=O)N1CCN(c2ccnc(-c3cnc4cnc(-c5cccnc5)cn34)n2)CC1 [IV-289, 1-(4-(2-(6-(Pyridin-3-yl)imidazo[1,2-a]pyrazin-3-yl)pyrimidin-4-yl)piperazin-1-yl)ethan-1-one]
< 10	CCN1C(C)CN(c2ccnc(-c3cnc4cnc(C(F)(F)F)cn34)n2)C(C)C1c1cn[nH]c1 (stereo not shown) [IV-292, 3-(4-(4-Ethyl-2,5-dimethyl-3-(1H-pyrazol-4-yl)piperazin-1-yl)pyrimidin-2-yl)-6-(trifluoromethyl)imidazo[1,2-a]pyrazine]
100 to 1000	CC(=O)N1CCN(c2ccnc(-c3cnc4cnc(-c5ccccc5)cn34)n2)CC1 [IV-297, 1-(4-(2-(6-Phenylimidazo[1,2-a]pyrazin-3-yl)pyrimidin-4-yl)piperazin-1-yl)ethan-1-one]
100 to 1000	CC(=O)Nc1ccc(-c2cn3c(-c4nccc(N5CCN(C(C)=O)CC5)n4)cnc3cn2)cc1 [IV-298, N-(4-(3-(4-(4-Acetylpiperazin-1-yl)pyrimidin-2-yl)imidazo[1,2-a]pyrazin-6-yl)phenyl)acetamide]
10 to 100	CCOc1cccc(-c2cn3c(-c4nccc(N5CCN(C(C)=O)CC5)n4)cnc3cn2)c1 [IV-299, 1-(4-(2-(6-(3-Ethoxyphenyl)imidazo[1,2-a]pyrazin-3-yl)pyrimidin-4-yl)piperazin-1-yl)ethan-1-one]
100 to 1000	CC(=O)N1CCN(c2ccnc(-c3cnc4cnc(-c5c[nH]nc5C)cn34)n2)CC1 [IV-300, 1-(4-(2-(6-(3-Methyl-1H-pyrazol-4-yl)imidazo[1,2-a]pyrazin-3-yl)pyrimidin-4-yl)piperazin-1-yl)ethan-1-one]
100 to 1000	CC(=O)N1CCN(c2ccnc(-c3cnc4cnc(-c5ccccc5C#N)cn34)n2)CC1 [IV-301, 2-(3-(4-(4-Acetylpiperazin-1-yl)pyrimidin-2-yl)imidazo[1,2-a]pyrazin-6-yl)benzonitrile]
< 10	CC1CC(c2cn[nH]c2)C(C)N(c2ccnc(-c3cnc4cnc(C(F)(F)F)cn34)n2)C1 (stereo not shown) [IV-304, 3-(4-(2,5-Dimethyl-3-(1H-pyrazol-4-yl)piperidin-1-yl)pyrimidin-2-yl)-6-(trifluoromethyl)imidazo[1,2-a]pyrazine]
10 to 100	CC(=O)N1CCN(c2ccnc(-c3cnc4cnc(-c5cccc(O)c5)cn34)n2)CC1 [IV-309, 1-(4-(2-(6-(3-Hydroxyphenyl)imidazo[1,2-a]pyrazin-3-yl)pyrimidin-4-yl)piperazin-1-yl)ethan-1-one]
10 to 100	FC(F)(F)c1cn2c(-c3nccc(N4CCCC(c5ccno5)C4)n3)cnc2cn1 (stereo not shown) [IV-317, 5-(1-(2-(6-(Trifluoromethyl)imidazo[1,2-a]pyrazin-3-yl)pyrimidin-4-yl)piperidin-3-yl)isoxazole]
10 to 100	FC(F)(F)c1cn2c(-c3nccc(N4CCCC(c5c[nH]cn5)C4)n3)cnc2cn1 (stereo not shown) [IV-325, 3-(4-(3-(1H-Imidazol-4-yl)piperidin-1-yl)pyrimidin-2-yl)-6-(trifluoromethyl)imidazo[1,2-a]pyrazine]
10 to 100	CC1(C)CN(c2ccnc(-c3cnc4cnc(C(F)(F)F)cn34)n2)CC(c2cn[nH]c2)N1 (stereo not shown) [IV-327, 3-(4-(3,3-Dimethyl-5-(1H-pyrazol-4-yl)piperazin-1-yl)pyrimidin-2-yl)-6-(trifluoromethyl)imidazo[1,2-a]pyrazine]
10 to 100	CC(C)C1CN(c2ccnc(-c3cnc4cnc(C(F)(F)F)cn34)n2)C(C)C(c2cn[nH]c2)N1 (stereo not shown) [IV-330, 3-(4-(5-Isopropyl-2-methyl-3-(1H-pyrazol-4-yl)piperazin-1-yl)pyrimidin-2-yl)-6-(trifluoromethyl)imidazo[1,2-a]pyrazine]
10 to 100	Brc1cn2c(-c3nccc(N4CCNC(c5c[nH]cn5)C4)n3)cnc2cn1 (stereo not shown) [IV-348, 3-(4-(3-(1H-Imidazol-4-yl)piperazin-1-yl)pyrimidin-2-yl)-6-bromoimidazo[1,2-a]pyrazine]
< 10	Cc1nc(C2=CCCN(c3ccnc(-c4cnc5cnc(Br)cn45)n3)C2)c[nH]1 [IV-356, 6-Bromo-3-(4-(5-(2-methyl-1H-imidazol-4-yl)-3,6-dihydropyridin-1(2H)-yl)pyrimidin-2-yl)imidazo[1,2-a]pyrazine]
10 to 100	CC1CN(c2nccc(-c3cnc4cnc(Cl)cn34)n2)C(C)C(c2cn[nH]c2)N1 (stereo not shown) [IV-382, 6-Chloro-3-(2-(2,5-dimethyl-3-(1H-pyrazol-4-yl)piperazin-1-yl)pyrimidin-4-yl)imidazo[1,2-a]pyrazine]
10 to 100	CC1CN(c2nccc(-c3cnc4cnc(Br)cn34)n2)C(C)C(c2cn[nH]c2)N1 (stereo not shown) [IV-383, 6-Bromo-3-(2-(2,5-dimethyl-3-(1H-pyrazol-4-yl)piperazin-1-yl)pyrimidin-4-yl)imidazo[1,2-a]pyrazine]
< 10	CC1C(c2cn[nH]c2)OCCN1c1nccc(-c2cnc3cnc(C(F)(F)F)cn23)n1 (stereo not shown) [IV-417, 3-Methyl-2-(1H-pyrazol-4-yl)-4-(4-(6-(trifluoromethyl)imidazo[1,2-a]pyrazin-3-yl)pyrimidin-2-yl)morpholine]
< 10	Fc1n[nH]cc1C1=CCCN(c2ccnc(-c3cnc4cnc(C(F)(F)F)cn34)n2)C1 [IV-430, 3-(4-(5-(3-Fluoro-1H-pyrazol-4-yl)-3,6-dihydropyridin-1(2H)-yl)pyrimidin-2-yl)-6-(trifluoromethyl)imidazo[1,2-a]pyrazine]
